This is an account of results in patent publication US20220402935A1, “HETEROCYCLIC COMPOUND” (FIMECS, INC., priority 2019, published 2022).

A word on the IC50: it is the concentration needed to halve the response being measured.

The structures appear in SMILES notation.

In the first test the target is T1, IRAK-M (Homo sapiens, UniProt Q9Y616).
T1 sequence (Q9Y616 1-596): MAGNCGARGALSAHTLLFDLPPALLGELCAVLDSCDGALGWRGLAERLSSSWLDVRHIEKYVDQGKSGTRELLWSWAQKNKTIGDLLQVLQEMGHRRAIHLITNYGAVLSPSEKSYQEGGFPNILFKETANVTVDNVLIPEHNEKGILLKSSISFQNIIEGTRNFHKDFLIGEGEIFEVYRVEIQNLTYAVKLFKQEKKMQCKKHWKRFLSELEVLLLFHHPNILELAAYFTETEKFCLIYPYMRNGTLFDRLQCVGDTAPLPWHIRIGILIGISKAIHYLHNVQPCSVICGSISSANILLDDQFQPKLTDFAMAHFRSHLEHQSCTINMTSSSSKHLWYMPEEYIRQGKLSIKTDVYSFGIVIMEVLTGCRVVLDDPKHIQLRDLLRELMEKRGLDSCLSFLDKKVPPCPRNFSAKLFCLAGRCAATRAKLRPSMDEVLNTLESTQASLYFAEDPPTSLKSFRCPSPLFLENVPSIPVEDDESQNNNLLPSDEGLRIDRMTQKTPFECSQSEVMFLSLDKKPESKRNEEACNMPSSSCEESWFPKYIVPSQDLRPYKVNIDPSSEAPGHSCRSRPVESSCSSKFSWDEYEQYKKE
Kind of test: IRAK-M binding inhibitory activity (KINOMEscan active site-dependent competitive assay). Details: purchased Eurofins Discover X. Conditions: concentration of the test compound 1 μM; first symbol of cell; read-out: IRAK-M binding inhibition activity % Ctrl. As for the experimental part:
IRAK-M binding inhibitory activity was evaluated using active site-dependent competitive assay KINOMEscan® provided by Eurofins Discover X (Goldstein, D. M. et al. High-throughput kinase profiling as a platform for drug discovery. Nat. Rev. Drug Discovery. 7, 391-397 (2008)). IRAK-M binding inhibitory activity of the test compound was evaluated. […] The “% Ctrl” is calculated by the following formula.
(test compound signal−positive control compound signal)/(negative control compound signal−positive control compound signal)×100
Negative control compound=DMSO (100 Ctrl)
Positive control compound=control compound (0%×Ctrl)
For the compound `O=S(=O)(c1ccccc1OC(F)(F)F)N1CCC(Oc2ncnc3ccsc23)CC1` [Ref. example 50, 4-((1-((2-(trifluoromethoxy)phenyl)sulfonyl)piperidin-4-yl)oxy)thieno[3,2-d]pyrimidine], the remaining binding at 1 µM lay in the range of 25 to 50%.

Consider `COc1ccc(S(=O)(=O)N2CCC(Oc3ncnc4ccsc34)CC2)cc1` [Ref. example 51, 4-((1-((4-methoxyphenyl)sulfonyl)piperidin-4-yl)oxy)thieno[3,2-d]pyrimidine], for which the remaining binding at 1 µM lay in the range of 25 to 50%.

In the case of `O=S(=O)(c1ccc(Cl)cc1)N1CCC(Oc2ncnc3ccsc23)CC1` [Ref. example 52, 4-((1-((4-chlorophenyl)sulfonyl)piperidin-4-yl)oxy)thieno[3,2-d]pyrimidine], the remaining binding at 1 µM is less than 25%.

Regarding `O=S(=O)(c1ccc(F)cc1)N1CCC(Oc2ncnc3ccsc23)CC1` [Ref. example 53, 4-((1-((4-fluorophenyl)sulfonyl)piperidin-4-yl)oxy)thieno[3,2-d]pyrimidine], the remaining binding at 1 µM was 25 to 50%.

`COc1cccc(S(=O)(=O)N2CCC(Oc3ncnc4ccsc34)CC2)c1` [Ref. example 54, 4-((1-((3-methoxyphenyl)sulfonyl)piperidin-4-yl)oxy)thieno[3,2-d]pyrimidine]: the remaining binding at 1 µM was in the range of 25 to 50%.

For `Cc1ccc(S(=O)(=O)N2CCC(Oc3ncnc4ccsc34)CC2)cc1` [Ref. example 55, 4-((1-(4-methylbenzenesulfonyl)piperidin-4-yl)oxy)thieno[3,2-d]pyrimidine], the remaining binding at 1 µM was in the range of 25 to 50%.

Turning to `O=S(=O)(c1cccc(F)c1)N1CCC(Oc2ncnc3ccsc23)CC1` [Ref. example 56, 4-((1-((3-fluorophenyl)sulfonyl)piperidin-4-yl)oxy)thieno[3,2-d]pyrimidine], the remaining binding at 1 µM lay in the range of 25 to 50%.

As to `O=S(=O)(c1cccc(Cl)c1)N1CCC(Oc2ncnc3ccsc23)CC1` [Ref. example 57, 4-((1-((3-chlorophenyl)sulfonyl)piperidin-4-yl)oxy)thieno[3,2-d]pyrimidine], the remaining binding at 1 µM lay within 25 to 50%.

For `O=S(=O)(c1cccnc1)N1CCC(Oc2ncnc3ccsc23)CC1` [Ref. example 58, 4-((1-(pyridin-3-ylsulfonyl)piperidin-4-yl)oxy)thieno[3,2-d]pyrimidine], the remaining binding at 1 µM was 25 to 50%.

Regarding `O=S(=O)(c1cnn(Cc2ccccc2)c1)N1CCC(Oc2ncnc3ccsc23)CC1` [Ref. example 59, 4-((1-((1-benzyl-1H-pyrazol-4-yl)sulfonyl)piperidin-4-yl)oxy)thieno[3,2-d]pyrimidine], the remaining binding at 1 µM lay in the range of 25 to 50%.

As to `COc1ccc(S(=O)(=O)N2CCC(Oc3ncnc4ccsc34)CC2)cn1` [Ref. example 60, 4-((1-((6-methoxypyridin-3-yl)sulfonyl)piperidin-4-yl)oxy)thieno[3,2-d]pyrimidine], the remaining binding at 1 µM fell in the range of 25 to 50%.

Regarding `Cc1cnn(C)c1S(=O)(=O)N1CCC(Oc2ncnc3ccsc23)CC1` [Ref. example 61, 4-((1-((1,4-dimethyl-1H-pyrazol-5-yl)sulfonyl)piperidin-4-yl)oxy)thieno[3,2-d]pyrimidine], the remaining binding at 1 µM was not below 75%.

As to `CC(C)CS(=O)(=O)N1CCC(Oc2ncnc3ccsc23)CC1` [Ref. example 62, 4-((1-(isobutylsulfonyl)piperidin-4-yl)oxy)thieno[3,2-d]pyrimidine], the remaining binding at 1 µM lay in the range of 25 to 50%.

As to `O=S(=O)(CCc1ccccc1)N1CCC(Oc2ncnc3ccsc23)CC1` [Ref. example 63, 4-((1-(phenethylsulfonyl)piperidin-4-yl)oxy)thieno[3,2-d]pyrimidine], the remaining binding at 1 µM was less than 25%.

Take `O=S(=O)(c1cccc(Oc2ccccc2)c1)N1CCC(Oc2ncnc3ccsc23)CC1` [Ref. example 64, 4-((1-((3-phenoxyphenyl)sulfonyl)piperidin-4-yl)oxy)thieno[3,2-d]pyrimidine]: the remaining binding at 1 µM was less than 25%.

With `CCOc1ccc(Nc2ncnc3ccsc23)cc1` [Ref. example 65, N-(4-ethoxyphenyl)thieno[3,2-d]pyrimidin-4-amine], the remaining binding at 1 µM is not below 75%.

As to `COc1ccc(Nc2nc(C)nc3cc(C)sc23)cc1OC` [Ref. example 66, N-(3,4-dimethoxyphenyl)-2,6-dimethylthieno[3,2-d]pyrimidin-4-amine], the remaining binding at 1 µM fell in the range of 50 to 75%.

With `C#CCN1CCC(Oc2ccnc3ccsc23)CC1` [Ref. example 67, 7-((1-(prop-2-yn-1-yl)piperidin-4-yl)oxy)thieno[3,2-b]pyridine], the remaining binding at 1 µM was in the range of 25 to 50%.

On to `Cn1nc(O)cc1CN1CCC(Oc2ccnc3ccsc23)CC1` [Ref. example 68, 1-methyl-5-((4-(thieno[3,2-b]pyridin-7-yloxy)piperidin-1-yl)methyl)-1H-pyrazol-3-ol], for which the remaining binding at 1 µM lay in the range of 25 to 50%.

As for `Cn1cc(CN2CCC(Oc3ccnc4ccsc34)CC2)cn1` [Ref. example 73, 7-((1-((1-methyl-1H-pyrazol-4-yl)methyl)piperidin-4-yl)oxy)thieno[3,2-b]pyridine], the remaining binding at 1 µM was not below 75%.

For the compound `Cc1nn(C)cc1CN1CCC(Oc2ccnc3ccsc23)CC1` [Ref. example 74, 7-((1-((1,3-dimethyl-1H-pyrazol-4-yl)methyl)piperidin-4-yl)oxy)thieno[3,2-b]pyridine], the remaining binding at 1 µM is 50 to 75%.

For the compound `Cc1nn(C)c(C)c1CN1CCC(Oc2ccnc3ccsc23)CC1` [Ref. example 75, 7-((1-((1,3,5-trimethyl-1H-pyrazol-4-yl)methyl)piperidin-4-yl)oxy)thieno[3,2-b]pyridine], the remaining binding at 1 µM was not below 75%.

Turning to `Cc1c(CN2CCC(Oc3ccnc4ccsc34)CC2)cnn1C` [Ref. example 76, 7-((1-((1,5-dimethyl-1H-pyrazol-4-yl)methyl)piperidin-4-yl)oxy)thieno[3,2-b]pyridine], the remaining binding at 1 µM lay in the range of 50 to 75%.

`Cn1nccc1CN1CCC(Oc2ccnc3ccsc23)CC1` [Ref. example 77, 7-((1-((1-methyl-1H-pyrazol-5-yl)methyl)piperidin-4-yl)oxy)thieno[3,2-b]pyridine]: the remaining binding at 1 µM was 25 to 50%.

With `Cc1noc(C)c1CN1CCC(Oc2ccnc3ccsc23)CC1` [Ref. example 78, 3,5-dimethyl-4-((4-(thieno[3,2-b]pyridin-7-yloxy)piperidin-1-yl)methyl)isoxazole], the remaining binding at 1 µM is 25 to 50%.

`c1csc(CN2CCC(Oc3ccnc4ccsc34)CC2)n1` [Ref. example 79, 7-((1-(thiazol-2-ylmethyl)piperidin-4-yl)oxy)thieno[3,2-b]pyridine]: the remaining binding at 1 µM lay in the range of 25 to 50%.

For `Cc1ncc(CN2CCC(Oc3ccnc4ccsc34)CC2)s1` [Ref. example 80, 7-((1-((2-methylthiazol-5-yl)methyl)piperidin-4-yl)oxy)thieno[3,2-b]pyridine], the remaining binding at 1 µM lay within 25 to 50%.

In the case of `O=C(Cn1cccn1)N1CCC(Oc2ccnc3ccsc23)CC1` [Ref. example 81, 2-(1H-pyrazol-1-yl)-1-(4-(thieno[3,2-b]pyridin-7-yloxy)piperidin-1-yl)ethan-1-one], the remaining binding at 1 µM lay in the range of 50 to 75%.

As for `O=C(Cn1nccn1)N1CCC(Oc2ccnc3ccsc23)CC1` [Ref. example 82, 1-(4-(thieno[3,2-b]pyridin-7-yloxy)piperidin-1-yl)-2-(2H-1,2,3-triazol-2-yl)ethan-1-one], the remaining binding at 1 µM lay within 50 to 75%.

Consider `C=CCn1oc(CN2CCC(Oc3ccnc4ccsc34)CC2)cc1=O` [Ref. example 84, 2-allyl-5-((4-(thieno[3,2-b]pyridin-7-yloxy)piperidin-1-yl)methyl)isoxazol-3(2H)-one], for which the remaining binding at 1 µM fell in the range of 25 to 50%.

The same test, now with this note: second symbol of cell; read-out: IRAK-M binding inhibition IC50 value.
In the case of `C=CCOc1cc(CN2CCC(Oc3ccnc4ccsc34)CC2)n(C)n1` [Ref. example 69, 7-((1-((3-(allyloxy)-1-methyl-1H-pyrazol-5-yl)methyl)piperidin-4-yl)oxy)thieno[3,2-b]pyridine], the IC50 fell in the range of 100 to 300 nM.

Regarding `C=CCOc1cc(CN2CCC(Oc3ncnc4ccsc34)CC2)on1` [Ref. example 70, 3-(allyloxy)-5-((4-(thieno[3,2-d]pyrimidin-4-yloxy)piperidin-1-yl)methyl)isoxazole], the IC50 was in the range of 100 to 300 nM.

Regarding `C#CCOc1cc(CN2CCC(Oc3ccnc4ccsc34)CC2)on1` [Ref. example 71, 3-(prop-2-yn-1-yloxy)-5-((4-(thieno[3,2-b]pyridin-7-yloxy)piperidin-1-yl)methyl)isoxazole], the IC50 was 30 to 100 nM.

Consider `C=CCOc1cc(CN2CCC(Oc3ccnc4cc(C)sc34)CC2)on1` [Ref. example 72, 3-(allyloxy)-5-((4-((2-methylthieno[3,2-b]pyridin-7-yl)oxy)piperidin-1-yl)methyl)isoxazole], for which the half-maximal inhibitory concentration (IC50) is 30 to 100 nM.

With `C=CCOc1cc(C(C)N2CCC(Oc3ccnc4ccsc34)CC2)on1` (centres unmarked) [Ref. example 83, 3-(allyloxy)-5-(1-(4-(thieno[3,2-b]pyridin-7-yloxy)piperidin-1-yl)ethyl)isoxazole], the half-inhibitory concentration (IC50) is less than 30 nM.
